Experimental data published in US20170173070A1, “METHODS OF ADMINISTERING LMWH” (MOMENTA PHARMACEUTICALS, INC., priority 2014, published 2017).
“Also recorded” adds a separate entry of the source.

Tests used:
[1] = tested on: pancreatic tumors of KPFMC mice; experiment: Histological examination of KPFMC pancreatic tumors for invasion (intestine, biliary tract); format: in vivo
Description: (§1) FIG. 3A depicts H&E sections of pancreatic tumors from KPFMC mice at clinical endpoint. The tumors were analyzed microscopically to identify intestinal invasion (upper panel). […] Expression values are depicted in the heat map. FIG. 3D is a bar graph showing the influence of gemcitabine treatment on the invasive behavior of tumor cells. The cells were analyzed by quantification of double positive E-cadherin and Fsp1 cells in tumor sections of mice treated with saline and gemcitabine until clinical endpoint.
(§2) Tumor cells having increased Wnt/β-catenin signaling are known to be invasive. […] This observation supports that gemcitabine monotherapy results in an invasive tumor phenotype. To confirm that gemcitabine monotherapy results in an invasive tumor phenotype, a cohort of KPFMC mice were exposed to gemcitabine monotherapy (100 mg/kg), starting at day 45 after birth. The tumors were subsequently harvested at the clinical humane endpoint. […] This observation supports that gemcitabine monotherapy results in an invasive tumor phenotype.

[2] = tested on: Wnt/β-catenin signaling pathway; experiment: Expression of members of the Wnt/β-catenin signaling pathway; format: in vivo; settings: gemcitabine monotherapy
Description: FIGS. 6A and 6B depict the effect of gemcitabine treatment on the Wnt/β-catenin signaling pathway.
FIGS. 7A and 7B depict the effect of pretreatment with M402 followed by subsequent gemcitabine/M402 combination treatment on the Wnt/β-catenin signaling pathway.
as §2
This observation supports that M402 inhibits the gemcitabine induced invasive tumor phenotype.

[3] = tested on: tumor cells undergoing EMT in KPFMC pancreatic tumors; experiment: Quantification of tumor cells undergoing EMT (E-cadherin/Fsp1 double positive cells) in KPFMC tumor sections; format: in vivo, mice; settings: gemcitabine vs saline, treated until clinical endpoint
Description: (§3) Expression values are depicted in the heat map. Mice were treated from day 30 after birth until day 51. […] FIG. 4C is an immunofluorescence image of a section from a saline treated KPFMC mouse pancreas co-stained with E-cadherin and Fsp1 showing high magnification view of cells that co-express both the epithelial and mesenchymal marker (left panel).
(§4) Expression values are depicted in the heat map. Color intensities indicate the fold change with M402+gemcitabine combination therapy over M402. FIG. 5B is a bar graph showing the influence of M402 treatment on the invasive behavior of tumor cells induced by gemcitabine. Tumor sections derived from mice treated with saline and gemcitabine until clinical endpoint were analyzed by quantification of cells positive for E-cadherin and Fsp1 in tumor. FIG. 5C is a bar graph showing the quantification of intact Islets of Langerhans (lower panel) from pancreatic tumors after the indicated treatments. (Means±SD are depicted; *P<0.05, NS P>0.05, Student's t test).
Tumor cells having increased Wnt/β-catenin signaling are known to be invasive. […] This observation supports that gemcitabine monotherapy results in an invasive tumor phenotype. To confirm that gemcitabine monotherapy results in an invasive tumor phenotype, a cohort of KPFMC mice were exposed to gemcitabine monotherapy (100 mg/kg), starting at day 45 after birth. […]

[4] = tested on: pancreatic ductal adenocarcinoma (PDA); settings: cited from earlier work
RTK phosphorylation = experiment: Phospho-RTK array analysis of KPFMC pancreatic tumors; format: in vivo, mice; settings: gemcitabine treated KPFMC tumors
Description: as §1, §3
as §4, with “FIG. 5B is a bar graph showing the influence of M402 treatment on the invasive behavior of tumor cells induced by gemcitabine.” left out, “(Means±SD are depicted; *P<0.05, NS P>0.05, Student's t test).” left out

Nc1ccn([C@@H]2O[C@H](CO)[C@@H](O)C2(F)F)c(=O)n1 [gemcitabine]
biliary tract obstruction / obstructive jaundice (invasion into the biliary tree) ([1]; gemcitabine monotherapy 100 mg/kg from day 45, clinical endpoint): obstructive jaundice; also recorded: invasion increased | intestinal invasion of pancreatic tumors ([1]; gemcitabine monotherapy 100 mg/kg from day 45 after birth, clinical endpoint, vs saline): increased invasion into the adjacent intestine; also recorded: number of mice with intestinal invasion increased | expression of members of the Wnt/β-catenin signaling pathway [2]: increases expression of several members of the Wnt/β-catenin signaling pathway | tumor cells undergoing EMT (E-cadherin/Fsp1 double positive cells) [3]: increase in tumor cells undergoing EMT | overall survival ([4]; adjuvant gemcitabine post surgical removal of a pancreatic tumor): prolong overall survival | survival benefit ([4]; gemcitabine monotherapy in the absence of surgery): failed to show an extensive survival benefit | RTK phosphorylation in pancreatic tumors (RTK phosphorylation): increased the phosphorylation of several RTKs; also recorded: increase in RTK phosphorylation
